Assay results: ChEMBL document CHEMBL1144310, “Identification of agonists and antagonists of the human melanocortin-4 receptor from piperazinebenzylamines” (Bioorg Med Chem Lett, 2005)
pEC50, pIC50, pKi: −log10 of the molar value.

How the values were obtained:
[1] = target: T1, Melanocortin receptor 4 (Homo sapiens, UniProt P32245); assay: Binding affinity towards human melanocortin 4 receptor expressed in HEK 293 cells using [125I]NDP-MSH; format: cell-based, HEK293
[2] = tested on: HEK293; assay: Agonist activity in stimulation of cAMP accumulation in HEK 293 cells; details: Homo sapiens
[3] = target: Melanocortin receptor 5 (Homo sapiens, UniProt P33032); assay: Binding affinity for human melanocortin 5 receptor
[4] = target: T1, Melanocortin receptor 4; assay: Inhibitory concentration against Melanocortin 4 receptor
[5] = tested on: HEK293; assay: Inhibition of alpha-MSH-stimulated cAMP production at 10 uM in HEK cell line; format: functional; details: Homo sapiens
[6] = target: Melanocortin receptor 3 (Homo sapiens, UniProt P41968); assay: Binding affinity for human melanocortin 3 receptor
Melanocortin receptor 3, sequence (P41968 whole entry): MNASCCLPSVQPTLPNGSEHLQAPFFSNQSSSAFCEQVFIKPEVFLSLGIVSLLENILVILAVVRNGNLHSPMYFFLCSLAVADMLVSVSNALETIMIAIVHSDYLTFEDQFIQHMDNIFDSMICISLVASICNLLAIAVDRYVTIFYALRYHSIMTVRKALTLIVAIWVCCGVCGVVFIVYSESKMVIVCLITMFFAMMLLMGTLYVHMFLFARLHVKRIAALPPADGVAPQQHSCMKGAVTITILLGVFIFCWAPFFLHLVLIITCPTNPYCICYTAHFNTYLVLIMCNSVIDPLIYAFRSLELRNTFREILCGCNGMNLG

T1 sequence (P32245 whole entry): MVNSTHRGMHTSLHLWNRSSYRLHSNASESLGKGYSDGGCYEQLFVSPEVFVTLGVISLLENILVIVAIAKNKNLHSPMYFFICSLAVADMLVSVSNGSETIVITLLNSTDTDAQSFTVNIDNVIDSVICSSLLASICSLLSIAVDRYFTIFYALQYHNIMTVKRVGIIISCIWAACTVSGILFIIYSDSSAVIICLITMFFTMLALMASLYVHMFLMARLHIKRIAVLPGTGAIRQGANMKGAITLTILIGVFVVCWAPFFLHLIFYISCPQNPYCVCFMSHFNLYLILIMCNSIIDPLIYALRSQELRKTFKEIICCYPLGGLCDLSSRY
Melanocortin receptor 5, sequence (P33032 whole entry): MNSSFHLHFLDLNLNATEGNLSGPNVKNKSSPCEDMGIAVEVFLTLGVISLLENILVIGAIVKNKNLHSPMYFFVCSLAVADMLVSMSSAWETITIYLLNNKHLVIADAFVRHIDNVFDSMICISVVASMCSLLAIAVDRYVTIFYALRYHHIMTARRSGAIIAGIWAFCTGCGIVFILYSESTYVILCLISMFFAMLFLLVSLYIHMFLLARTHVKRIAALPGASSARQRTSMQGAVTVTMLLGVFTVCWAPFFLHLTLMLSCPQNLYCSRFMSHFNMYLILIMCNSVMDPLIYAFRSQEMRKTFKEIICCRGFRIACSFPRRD

Row | SMILES | pKi [1] | pEC50 [2] | further results
1 | CC(NC1CCCNC1)c1ccccc1N1CCN(C(=O)[C@@H](Cc2ccc(Cl)cc2)NC(=O)C(N)c2ccccc2)CC1 (some centres undefined) | 7.47 | – | –
2 | CC(NC1CCCNC1)c1ccccc1N1CCN(C(=O)[C@@H](Cc2ccc(Cl)cc2)NC(=O)C(N)Cc2cccnc2)CC1 (some centres undefined) | 7.31 | – | –
3 | O=C(N[C@H](Cc1ccc(Cl)cc1)C(=O)N1CCN(c2ccccc2CNCCCN2CCCCCC2)CC1)[C@H]1Cc2ccccc2CN1 | 6.80 | 6.24 | –
4 | O=C(N[C@H](Cc1ccc(Cl)cc1)C(=O)N1CCN(c2ccccc2CN2CCCNCC2)CC1)[C@H]1Cc2ccccc2CN1 | 7.11 | 6.68 | –
5 | CC(NC1CCCNC1)c1ccccc1N1CCN(C(=O)[C@@H](Cc2ccc(Cl)cc2)NC(=O)C(N)Cc2ccccn2)CC1 (some centres undefined) | 7.25 | 6.66 | –
6 | O=C(N[C@H](Cc1ccc(Cl)cc1)C(=O)N1CCN(c2ccccc2CNCCCN2CCCC2=O)CC1)[C@H]1Cc2ccccc2CN1 | 6.57 | 6.44 | –
7 | O=C(N[C@H](Cc1ccc(Cl)cc1)C(=O)N1CCN(c2ccccc2CNCCCn2ccnc2)CC1)[C@H]1Cc2ccccc2CN1 | 6.43 | 6.19 | –
8 | CC(NC1CCCNC1)c1ccccc1N1CCN(C(=O)[C@@H](Cc2ccc(Cl)cc2)NC(=O)CCc2ccccc2)CC1 (some centres undefined) | 7.48 | – | –
9 | N[C@H]1CCCC[C@@H]1NCc1ccccc1N1CCN(C(=O)[C@@H](Cc2ccc(Cl)cc2)NC(=O)[C@H]2Cc3ccccc3CN2)CC1 | 7.05 | 6.41 | –
10 | CC(NC1CCCNC1)c1ccccc1N1CCN(C(=O)[C@@H](Cc2ccc(Cl)cc2)NC(=O)C2(N)Cc3ccccc3C2)CC1 (some centres undefined) | 7.62 | 6.36 | –
11 | O=C(N[C@H](Cc1ccc(Cl)cc1)C(=O)N1CCN(c2ccccc2CN2CCOCC2)CC1)[C@H]1Cc2ccccc2CN1 | 7.28 | 6.44 | –
12 | CC(C)COCCCNC(C)c1ccccc1N1CCN(C(=O)[C@@H](Cc2ccc(Cl)cc2)NC(=O)[C@H]2Cc3ccccc3CN2)CC1 (some centres undefined) | 7.39 | 6.25 | –
13 | O=C(N[C@H](Cc1ccc(Cl)cc1)C(=O)N1CCN(c2ccccc2CNCCc2cccs2)CC1)[C@H]1Cc2ccccc2CN1 | – | 6.44 | –
14 | CC(NCCN1CCOCC1)c1ccccc1N1CCN(C(=O)[C@@H](Cc2ccc(Cl)cc2)NC(=O)[C@H]2Cc3ccccc3CN2)CC1 (some centres undefined) | 7.06 | 6.64 | –
15 | CC(NC1CCCNC1)c1ccccc1N1CCN(C(=O)[C@@H](Cc2ccc(Cl)cc2)NC(=O)c2cnc3ccccc3c2)CC1 (some centres undefined) | 8.32 | – | pKi [3]: 6.22; pIC50 [4]: 6.52; inhibition at 10 µM [5]: 38%; pKi [6]: 6.20
16 | CC(NC1CCCNC1)c1ccccc1N1CCN(C(=O)[C@@H](Cc2ccc(Cl)cc2)NC(=O)C(N)C2CCc3ccccc32)CC1 (some centres undefined) | 6.92 | 6.20 | –
17 | CN(C)CCC(=O)N[C@H](Cc1ccc(Cl)cc1)C(=O)N1CCC(Cn2cncn2)(C2CCCCC2)CC1 | – | 7.40 | –
18 | CC(C)COCCCNCc1ccccc1N1CCN(C(=O)[C@@H](Cc2ccc(Cl)cc2)NC(=O)[C@H]2Cc3ccccc3CN2)CC1 | 6.96 | 6.28 | –
19 | CN1CCN(Cc2ccccc2N2CCN(C(=O)[C@@H](Cc3ccc(Cl)cc3)NC(=O)[C@H]3Cc4ccccc4CN3)CC2)CC1 | 6.62 | 6.14 | –
20 | CN(C)CCN(Cc1ccccc1)Cc1ccccc1N1CCN(C(=O)[C@@H](Cc2ccc(Cl)cc2)NC(=O)[C@H]2Cc3ccccc3CN2)CC1 | 7.66 | 6.26 | –
21 | O=C(N[C@H](Cc1ccc(Cl)cc1)C(=O)N1CCN(c2ccccc2CNc2ccncc2)CC1)[C@H]1Cc2ccccc2CN1 | 7.44 | 6.46 | –
22 | CC(NC1CCCNC1)c1ccccc1N1CCN(C(=O)[C@@H](Cc2ccc(Cl)cc2)NC(=O)C(N)Cc2ccccc2)CC1 (some centres undefined) | 7.28 | 6.40 | –
23 | CC(NC1CCCNC1)c1ccccc1N1CCN(C(=O)[C@@H](Cc2ccc(Cl)cc2)NC(=O)Cc2ccccc2)CC1 (some centres undefined) | 7.52 | – | –
24 | CC(NC1CCCNC1)c1ccccc1N1CCN(C(=O)[C@@H](Cc2ccc(Cl)cc2)NC(=O)C2(N)CCc3ccccc32)CC1 (some centres undefined) | 7.33 | – | –
25 | CC(NC1CCCNC1)c1ccccc1N1CCN(C(=O)[C@@H](Cc2ccc(Cl)cc2)NC(=O)CC2NCCc3ccccc32)CC1 (some centres undefined) | 8.20 | 7.51 | pKi [6]: 5.72
26 | CC(NC1CCCNC1)c1ccccc1N1CCN(C(=O)[C@@H](Cc2ccc(Cl)cc2)NC(=O)[C@H]2Cc3ccccc3CN2)CC1 (some centres undefined) | – | 8.33 | –
27 | CCOC(=O)CN(C)Cc1ccccc1N1CCN(C(=O)[C@@H](Cc2ccc(Cl)cc2)NC(=O)[C@H]2Cc3ccccc3CN2)CC1 | 6.85 | 6.68 | –
28 | O=C(N[C@H](Cc1ccc(Cl)cc1)C(=O)N1CCN(c2ccccc2CNCCN2CCOCC2)CC1)[C@H]1Cc2ccccc2CN1 | 6.92 | 6.24 | –
29 | CC(NC1CCCNC1)c1ccccc1N1CCN(C(=O)[C@@H](Cc2ccc(Cl)cc2)NC(=O)C2(N)CCc3ccccc3C2)CC1 (some centres undefined) | 8.00 | 6.48 | –
